Data on 24 molecules can be found in patent US8129398B2 (priority 2008, dated 2012).

Where only a bound is given, the exact number is not on record here.

In the experiment the target is T1, HIV-integrase (Human immunodeficiency virus type 1 group M subtype B, UniProt P12497).
T1 construct: Recombinant integrase (0.26 ng) was incubated with the beads
Nature of the experiment: HIV-Integrase Inhibition Activity (SPA bead integration assay with P33 labeled target DNA). It counts as biochemical. To be noted: recombinant integrase, class symbols; read-out: in vitro activity. As to the method: HIV-Integrase Inhibition Activity. To evaluate in-vitro activity against HIV-integrase, 5 pmole of biotin labeled substrate DNA was bound to 100 μg of Streptavidin coated PVT SPA beads (Amersham Pharmacia Biotech). Recombinant integrase (0.26 ng) was incubated with the beads for 90 min at 37° C. Unbound enzyme was removed by washing the complex followed by addition of inhibitors and 0.1 fmol of P33 labeled target DNA. The reaction was stopped by adding EDTA to a final concentration of 10 mM. Samples were counted in TopCountNXT (Packard) and the CPM was used as a measure of integration. The reaction condition was as described in A. Engelman and R. Craigie, J. Virol. 69, 5908-5911 (1995). The sequences of substrate and target DNA were described in Nucleic Acid Research 22, 1121-1122 (1994). Activity equal to A refers to a compound having IC50=<10 nM while B and C denote compounds having […] and IC50>100 nM respectively.
For `CN(C)CC(=O)NC12CCC(CC1)Cn1c2nc(C(=O)NCc2ccc(F)cc2)c(O)c1=O` [Example 29, 10-((N,N-Dimethylglycyl)amino)-N-(4-fluorobenzyl)-3-hydroxy-4-oxo-4,6,7,8,9,10-hexahydro-7,10-ethanopyrimido[1,2-a]azepine-2-carboxamide], the IC50 lay within 10 to 100 nM.
To `CN(C)C(=O)CNC12CCC(CC1)Cn1c2nc(C(=O)NCc2ccc(F)cc2)c(O)c1=O` [Example 30, 10-((2-(Dimethylamino)-2-oxoethyl)amino)-N-(4-fluorobenzyl)-3-hydroxy-4-oxo-4,6,7,8,9,0-hexahydro-7,10-ethanopyrimido[1,2-a]azepine-2-carboxamide] belongs 10 to 100 nM; to `O=C(NCc1ccc(F)cc1)c1nc2n(c(=O)c1O)CC1CCC2(NC(=O)C2CCOCC2)CC1` [Example 32, N-(4-Fluorobenzyl)-3-hydroxy-4-oxo-10-((tetrahydro-2H-pyran-4-ylcarbonyl)amino)-4,6,7,8,9,10-hexahydro-7,10-ethanopyrimido[1,2-a]azepine-2-carboxamide], below 10 nM; to `Cc1ncoc1C(=O)NC12CCC(CC1)Cn1c2nc(C(=O)NCc2ccc(F)cc2)c(O)c1=O` [Example 34, N-(4-Fluorobenzyl)-3-hydroxy-10-(((4-methyl-1,3-oxazol-5-yl)carbonyl)amino)-4-oxo-4,6,7,8,9,10-hexahydro-7,10-ethanopyrimido[1,2-a]azepine-2-carboxamide], below 10 nM.
To `O=C(NC12CCC(CC1)Cn1c2nc(C(=O)NCc2ccc(F)cc2)c(O)c1=O)c1ccncc1` [Example 35, N-(4-Fluorobenzyl)-3-hydroxy-4-oxo-10-((4-pyridinylcarbonyl)amino)-4,6,7,8,9,10-hexahydro-7,10-ethanopyrimido[1,2-a]azepine-2-carboxamide] belongs below 10 nM; to `O=C(NC12CCC(CC1)Cn1c2nc(C(=O)NCc2ccc(F)cc2)c(O)c1=O)c1ccccc1` [Example 36, N-(4-Fluorobenzyl)-3-hydroxy-4-oxo-10-((phenylcarbonyl)amino)-4,6,7,8,9,10-hexahydro-7,10-ethanopyrimido[1,2-a]azepine-2-carboxamide], below 10 nM; to `Cc1cc(C(=O)NC23CCC(CC2)Cn2c3nc(C(=O)NCc3ccc(F)cc3-n3ncnc3C)c(O)c2=O)no1` [Example 37, N-(4-Fluoro-2-(5-methyl-1H-1,2,4-triazol-1-yl)benzyl)-3-hydroxy-10-(((5-methyl-3-isoxazolyl)carbonyl)amino)-4-oxo-4,6,7,8,9,10-hexahydro-7,10-ethanopyrimido[1,2-a]azepine-2-carboxamide], 10 to 100 nM.
To `Cc1ncnn1-c1cc(F)ccc1CNC(=O)c1nc2n(c(=O)c1O)CC1CCC2(NS(C)(=O)=O)CC1` [Example 39, N-(4-Fluoro-2-(5-methyl-1H-1,2,4-triazol-1-yl)benzyl)-3-hydroxy-10-((methylsulfonyl)amino)-4-oxo-4,6,7,8,9,10-hexahydro-7,10-ethanopyrimido[1,2-a]azepine-2-carboxamide] belongs below 10 nM.
For the molecule `CN(C)S(=O)(=O)NC12CCC(CC1)Cn1c2nc(C(=O)NCc2ccc(F)cc2)c(O)c1=O` [Example 40, 10-((Dimethylsulfamoyl)amino)-N-(4-fluorobenzyl)-3-hydroxy-4-oxo-4,6,7,8,9,10-hexahydro-7,10-ethanopyrimido[1,2-a]azepine-2-carboxamide], the IC50 is below 10 nM.
Turning to `O=C(CN1CCCC1=O)NC12CCC(CC1)Cn1c2nc(C(=O)NCc2ccc(F)cc2)c(O)c1=O` [Example 43, N-(4-Fluorobenzyl)-3-hydroxy-4-oxo-10-(((2-oxo-1-pyrrolidinyl)acetyl)amino)-4,6,7,8,9,10-hexahydro-7,10-ethanopyrimido[1,2-a]azepine-2-carboxamide], the IC50 is below 10 nM.
As to `Cn1cccc1C(=O)C(=O)NC12CCC(CC1)Cn1c2nc(C(=O)NCc2ccc(F)cc2)c(O)c1=O` [Example 45, N-(4-Fluorobenzyl)-3-hydroxy-10-(((1-methyl-1H-pyrrol-2-yl) (oxo)acetyl)amino)-4-oxo-4,6,7,8,9,10-hexahydro-7,10-ethanopyrimido[1,2-a]azepine-2-carboxamide], the IC50 is below 10 nM.
Regarding `O=C1CC[C@@H](C(=O)NC23CCC(CC2)Cn2c3nc(C(=O)NCc3ccc(F)cc3)c(O)c2=O)N1` [Example 46, N-(4-Fluorobenzyl)-3-hydroxy-4-oxo-10-((5-oxoprolyl)amino)-4,6,7,8,9,10-hexahydro-7,10-ethanopyrimido[1,2-a]azepine-2-carboxamide], the IC50 was below 10 nM.
To `COc1cnc(Cl)c2[nH]cc(C(=O)C(=O)NC34CCC(CC3)Cn3c4nc(C(=O)NCc4ccc(F)cc4)c(O)c3=O)c12` [Example 47, 10-(((7-Chloro-4-methoxy-1H-pyrrolo[2,3-c]pyridin-3-yl)(oxo)acetyl)amino)-N-(4-fluorobenzyl)-3-hydroxy-4-oxo-4,6,7,8,9,10-hexahydro-7,10-ethanopyrimido[1,2-a]azepine-2-carboxamide] belongs below 10 nM; to `Cn1ccnc1C(=O)NC12CCC(CC1)Cn1c2nc(C(=O)NCc2ccc(F)cc2)c(O)c1=O` [Example 49, N-(4-Fluorobenzyl)-3-hydroxy-10-(((1-methyl-1H-imidazol-2-yl)carbonyl)amino)-4-oxo-4,6,7,8,9,10-hexahydro-7,11-ethanopyrimido[1,2-a]azepine-2-carboxamide], below 10 nM.
To `CN(CC(F)(F)F)C(=O)C(=O)NC12CCC(CC1)Cn1c2nc(C(=O)NCc2ccc(F)cc2)c(O)c1=O` [Example 50, N′-(2-((4-Fluorobenzyl)carbamoyl)-3-hydroxy-4-oxo-6,7,8,9-tetrahydro-7,10-ethanopyrimido[1,2-a]azepin-10(4H)-yl)-N-methyl-N-(2,2,2-trifluoroethyl)ethanediamide] belongs below 10 nM.
In the case of `Cc1cc(CNC(=O)c2nc3n(c(=O)c2O)CC2CCC3(NC(=O)C(=O)N(C)CC(F)(F)F)CC2)ccc1F` [Example 51, N′-(2-((4-Fluoro-3-methylbenzyl)carbamoyl)-3-hydroxy-4-oxo-6,7,8,9-tetrahydro-7,10-ethanopyrimido[1,2-a]azepin-10(4H)-yl)-N-methyl-N-(2,2,2-trifluoroethyl)ethanediamide], the IC50 was below 10 nM.
With `CN(CCF)C(=O)C(=O)NC12CCC(CC1)Cn1c2nc(C(=O)NCc2ccc(F)cc2)c(O)c1=O` [Example 52, N′-(2-((4-Fluorobenzyl)carbamoyl)-3-hydroxy-4-oxo-6,7,8,9-tetrahydro-7,10-ethanopyrimido[1,2-a]azepin-10(4H)-yl)-N-(2-fluoroethyl)-N-methylethanediamide], the IC50 was below 10 nM.
For `Cc1nnc(C(=O)NC23CCC(CC2)Cn2c3nc(C(=O)NCc3ccc(F)cc3)c(O)c2=O)o1` [Example 53, N-(4-Fluorobenzyl)-3-hydroxy-10-(((5-methyl-1,3,4-oxadiazol-2-yl)carbonyl)amino)-4-oxo-4,6,7,8,9,10-hexahydro-7,11-ethanopyrimido[1,2-a]azepine-2-carboxamide] the value was below 10 nM; for `Cn1cnc(C(=O)NC23CCC(CC2)Cn2c3nc(C(=O)NCc3ccc(F)cc3)c(O)c2=O)n1` [Example 54, N-(4-Fluorobenzyl)-3-hydroxy-10-(((1-methyl-1H-1,2,4-triazol-3-yl)carbonyl)amino)-4-oxo-4,6,7,8,9,10-hexahydro-7,10-ethanopyrimido[1,2-a]azepine-2-carboxamide], below 10 nM; for `CN(C)C(=O)C(=O)NC12CCC(CC1)Cn1c2nc(C(=O)NCc2cc(Br)c(F)cc2Br)c(O)c1=O` [Example 56, N′-(2-((2,5-Dibromo-4-fluorobenzyl)carbamoyl)-3-hydroxy-4-oxo-6,7,8,9-tetrahydro-7,10-ethanopyrimido[1,2-a]azepin-10(4H)-yl)-N,N-dimethylethanediamide], below 10 nM.
As for `CN(C)C(=O)C(=O)NC12CCC(CC1)Cn1c2nc(C(=O)NCc2ccc(F)cc2)c(O)c1=O` [Example 57, N′-(2-((4-Fluorobenzyl)carbamoyl)-3-hydroxy-4-oxo-6,7,8,9-tetrahydro-7,10-ethanopyrimido[1,2-a]azepin-10(4H)-yl)-N,N-dimethylethanediamide], the IC50 is below 10 nM.
For `O=C(NC12CCC(CC1)Cn1c2nc(C(=O)NCc2ccc(F)cc2)c(O)c1=O)C(=O)N1CCCC1` [Example 58, N-(4-Fluorobenzyl)-3-hydroxy-4-oxo-10-((oxo(1-pyrrolidinyl)acetyl)amino)-4,6,7,8,9,10-hexahydro-7,10-ethanopyrimido[1,2-a]azepine-2-carboxamide] the value was below 10 nM; for `O=C(NC12CCC(CC1)Cn1c2nc(C(=O)NCc2ccc(F)cc2)c(O)c1=O)C(=O)N1CCCCC1` [Example 59, N-(4-Fluorobenzyl)-3-hydroxy-4-oxo-10-((oxo(1-piperidinyl)acetyl)amino)-4,6,7,8,9,10-hexahydro-7,10-ethanopyrimido[1,2-a]azepine-2-carboxamide], below 10 nM.
Take `O=C(NC12CCC(CC1)Cn1c2nc(C(=O)NCc2ccc(F)cc2)c(O)c1=O)C(=O)N1CCOCC1` [Example 60, N-(4-Fluorobenzyl)-3-hydroxy-10-((4-morpholinyl(oxo)acetyl)amino)-4-oxo-4,6,7,8,9,10-hexahydro-7,10-ethanopyrimido[1,2-a]azepine-2-carboxamide]: the IC50 was below 10 nM.
